Usually EC50 stands for the midpoint of the concentration-response curve. Low values mean an effect from little substance, high ones a need for much substance. One may read the CC50 as the concentration that lowers cell viability or growth by half. A high value points to better tolerance by the cells.

One data set has as its system HIV-1-IIIB strain. In words: Anti-HIV activity: protection of HIV-infected MT-4 cells from HIV-induced cytopathy (MTT assay). The note with it: for SI(IIIB), selection index (CC50/EC50): HIV-1 IIIB, MT-4 cells; for EC50: Human immunodeficiency virus 1, IIIB, MT4. Here is the method: (§1) The test was performed as follows. […] The toxicity test was performed in parallel with the anti-HIV activity test. […] Moreover, a selection index (SI=[…]) was also calculated.
The anti-HIV activity of the compound to be tested was evaluated by the inhibitory effect on the HIV-induced cytopathy in the cell.
Viruses: HIV-1-IIIB strain and HIV-2 ROD strain.
(§2) The compound to be tested was dissolved in DMSO or water and diluted gradiently with phosphate-buffered saline solution. […] 100 μL of a virus dilution at an appropriate concentration was added, and co-cultured with the MT-4 cells at 37° C. for 1 h. Then, the MT-4 cells were collected, washed three times, resuspended with a culture medium with or without the compound to be tested and cultured at 37° C. and 5% CO2 for 7 d. On the third day of the infection, the culture medium was correspondingly replaced with the culture medium with or without the compound to be tested. Each culture process was repeated twice. The HIV-induced cytopathy was monitored daily with a reverse optical microscope. […] Considering that the DMSO may affect the antiviral activity of the compound to be tested, it is necessary to design a blank control using the same concentration of DMSO.
(In general: Formazan colour is commonly taken as a measure of viable cells.)

For another data set, the system named is MT-4 cells. In words: Cytotoxicity in uninfected MT-4 cells (MTT assay). As to conditions: Mean ± SD, at least three independent experiments. In kind it is cell-based. As for the experimental part: as §1, §2
The conditions of data set [1]: prior art; cited from earlier work.
A short description of data set [2]: Cytotoxicity in uninfected MT-4 cells (MTT assay). In kind it is cell-based. As to conditions: human, uninfected MT-4 cells, Mean ± SD, at least three independent experiments. As for the experimental part:
as §1, §2

As to `O=C1Nc2ccc(Cl)cc2[C@@](C#CC2CC2)(C(F)(F)F)O1` [EFV, Efavirenz, reference compound], in the data set on HIV-1-IIIB strain, the “SI(IIIB), selection index (CC50/EC50)” value is recorded as over 1600 and the concentration for a half-maximal effect (EC50) was 0.004 ± 0.0015 µM. The compound also gave a CC50 in the data set on MT-4 cells of over 6.33 µM.

For the compound `Cc1cc(C#N)cc(C)c1Oc1nc(Nc2ccc(C#N)cc2)nc(N)c1Br` [ETR, Etravirine, reference compound], in the data set with HIV-1-IIIB strain, the “SI(IIIB), selection index (CC50/EC50)” value is reported as over 1159 and it took 0.004 ± 0.00068 µM to reach a half-maximal effect (EC50). In the data set on MT-4 cells, this compound yielded a CC50 of over 4.6 µM. Moreover, the water solubility in data set [1] is under 1 µg/mL.

With `Cc1ccnc2c1NC(=O)c1cccnc1N2C1CC1` [NVP, Nevirapine, reference compound], the CC50 at 7 d in data set [2] was over 15 µM.

In the case of `N#Cc1ccc(Nc2nccc(Nc3c(F)cc(-c4cccnc4)cc3F)n2)cc1` [compound 2], in the data set with HIV-1-IIIB strain, the “SI(IIIB), selection index (CC50/EC50)” value is 32,698 and it took 0.0074 ± 0.00176 µM to reach a half-maximal effect (EC50). Further, in the data set with MT-4 cells, the CC50 came to 242 ± 42 µM.

Take `N#Cc1ccc(Nc2nccc(Nc3c(F)cc(-c4cncnc4)cc3F)n2)cc1` [compound 3]: in the data set on HIV-1-IIIB strain, the “SI(IIIB), selection index (CC50/EC50)” value amounted to 229 and it took 0.0119 ± 0.0032 µM to reach a half-maximal effect (EC50). This compound also returned a CC50 with MT-4 cells of 2.7 ± 1.7 µM.

As to `N#Cc1ccc(Nc2nccc(Nc3c(F)cc(-c4ccco4)cc3F)n2)cc1` [compound 4], in the data set with HIV-1-IIIB strain, the “SI(IIIB), selection index (CC50/EC50)” value was found to be 7910 and the EC50 is 0.0021 µM. In the data set on MT-4 cells, this compound had a CC50 of 16.6 ± 6.9 µM.

On to `N#Cc1ccc(Nc2nccc(Nc3c(F)cc(-c4ccoc4)cc3F)n2)cc1` [compound 5], for which, in the data set on HIV-1-IIIB strain, the “SI(IIIB), selection index (CC50/EC50)” value is 3291 and the EC50 amounted to 0.0032 ± 0.00018 µM. For the same compound, it took 10.6 ± 1.8 µM to reach half-maximal cytotoxicity with MT-4 cells (CC50).

For `N#Cc1ccc(Nc2nccc(Nc3c(F)cc(-c4cccs4)cc3F)n2)cc1` [compound 6], in the data set on HIV-1-IIIB strain, the “SI(IIIB), selection index (CC50/EC50)” value is given as >74,627 and the EC50 was 0.0041 ± 0.002 µM. Moreover, the CC50 in the data set with MT-4 cells is over 308 µM.

For the compound `N#Cc1ccc(Nc2nccc(Nc3c(F)cc(-c4ccsc4)cc3F)n2)cc1` [compound 7], in the data set on HIV-1-IIIB strain, the “SI(IIIB), selection index (CC50/EC50)” value came to 14032 and the EC50 stood at 0.0039 ± 0.0014 µM. In the data set on MT-4 cells, this compound registered a CC50 of 55.4 ± 18.7 µM.

With `N#Cc1ccc(Nc2nccc(Nc3c(F)cc(-c4cn[nH]c4)cc3F)n2)cc1` [compound 8], in the data set with HIV-1-IIIB strain, the “SI(IIIB), selection index (CC50/EC50)” value worked out at 298 and the EC50 turned out to be 0.01 ± 0.006 µM. Half-maximal cytotoxicity in the data set on MT-4 cells (CC50) was put at 3.1 ± 1.7 µM.

Turning to `N#Cc1ccc(Nc2nccc(Nc3c(F)cc(-c4ccnc(F)c4)cc3F)n2)cc1` [compound 9], in the data set on HIV-1-IIIB strain, the “SI(IIIB), selection index (CC50/EC50)” value was 1311 and the EC50 was found to be 0.0038 ± 0.0032 µM. For the same compound, the cytotoxic concentration (CC50) in the data set with MT-4 cells is 5 ± 0.9 µM.

`N#Cc1ccc(Nc2nccc(Nc3c(F)cc(-c4cc(Cl)nc(Cl)c4)cc3F)n2)cc1` [compound 10]: in the data set with HIV-1-IIIB strain, the “SI(IIIB), selection index (CC50/EC50)” value is recorded as 97 and it took 0.056 ± 0.0326 µM to reach a half-maximal effect (EC50). For the same compound, the CC50 with MT-4 cells was 5.4 ± 0.54 µM.

On to `N#Cc1ccc(Nc2nccc(Nc3c(F)cc(-c4ccnc(Cl)c4Cl)cc3F)n2)cc1` [compound 11], for which, in the data set with HIV-1-IIIB strain, the “SI(IIIB), selection index (CC50/EC50)” value came to 3673 and the response was half-maximal at 0.0055 ± 0.0007 µM (EC50). In addition, in the data set on MT-4 cells, the CC50 turned out to be 20 ± 16 µM.

`N#Cc1ccc(Nc2nccc(Nc3c(F)cc(-c4coc5ccccc45)cc3F)n2)cc1` [compound 12]: in the data set on HIV-1-IIIB strain, the “SI(IIIB), selection index (CC50/EC50)” value is given as 1991 and the EC50 was determined as 0.044 ± 0.0101 µM. This compound registered a CC50 with MT-4 cells of 87 ± 54 µM.

In the case of `N#Cc1ccc(Nc2nccc(Nc3c(F)cc(-c4csc5ccccc45)cc3F)n2)cc1` [compound 13], in the data set on HIV-1-IIIB strain, the “SI(IIIB), selection index (CC50/EC50)” value is on record as 132 and the EC50 was 0.124 ± 0.078 µM. In addition, in the data set with MT-4 cells, half-maximal cytotoxicity (CC50) was put at 16 ± 6 µM.

Regarding `N#Cc1ccc(Nc2nccc(Nc3c(F)cc(-c4ccnc(C#N)c4F)cc3F)n2)cc1` [compound 14], in the data set with HIV-1-IIIB strain, the “SI(IIIB), selection index (CC50/EC50)” value is reported as >142,857 and the response was half-maximal at 0.00198 ± 0.00042 µM (EC50). The compound also showed a CC50 in the data set with MT-4 cells of over 282 µM.

Consider `N#Cc1ccc(Nc2nccc(Nc3c(F)cc(-c4ccncc4F)cc3F)n2)cc1` [compound 15], for which, in the data set with HIV-1-IIIB strain, the “SI(IIIB), selection index (CC50/EC50)” value is reported as 2566 and the EC50 came out at 0.0013 ± 0.0006 µM. Moreover, it took 3.3 ± 1.5 µM to reach half-maximal cytotoxicity with MT-4 cells (CC50).

In the case of `N#Cc1ccc(Nc2nccc(Nc3c(F)cc(-c4cc(F)nc(F)c4)cc3F)n2)cc1` [compound 16], in the data set with HIV-1-IIIB strain, the “SI(IIIB), selection index (CC50/EC50)” value turned out to be 1966 and the midpoint of the response, the EC50, lay at 0.0056 ± 0.0015 µM. In addition, the CC50 in the data set on MT-4 cells amounted to 11 ± 6.8 µM.

Consider `N#Cc1ccc(Nc2nccc(Nc3c(F)cc(-c4ccnc(F)c4F)cc3F)n2)cc1` [compound 17], for which, in the data set with HIV-1-IIIB strain, the “SI(IIIB), selection index (CC50/EC50)” value is >147,059 and the EC50 is 0.002 ± 0.00048 µM. The CC50 with MT-4 cells was over 286 µM.

As for `N#Cc1ccc(Nc2nccc(Nc3c(F)cc(-c4ccnc(Cl)c4)cc3F)n2)cc1` [compound 18], in the data set with HIV-1-IIIB strain, the “SI(IIIB), selection index (CC50/EC50)” value came to 622 and it took 0.0068 ± 0.0034 µM to reach a half-maximal effect (EC50). This compound registered a CC50 in the data set on MT-4 cells of 4.2 ± 0.45 µM.

`N#Cc1ccc(Nc2nccc(Nc3c(F)cc(-c4ccnc(-c5ccnc(Cl)c5)c4)cc3F)n2)cc1` [compound 19]: in the data set with HIV-1-IIIB strain, the “SI(IIIB), selection index (CC50/EC50)” value amounted to 3068 and the EC50 came out at 0.0168 ± 0.003 µM. The same compound returned a CC50 with MT-4 cells of 51 ± 41 µM.

Regarding `Cc1cc(-c2cc(F)c(Nc3ccnc(Nc4ccc(C#N)cc4)n3)c(F)c2)ccn1` [compound 20], in the data set on HIV-1-IIIB strain, the “SI(IIIB), selection index (CC50/EC50)” value was determined as 777 and a half-maximal response (EC50) required 0.0041 ± 0.0011 µM. In the data set on MT-4 cells, this compound returned a CC50 of 3.2 ± 1.1 µM.

With `Cc1cc(-c2cc(F)c(Nc3ccnc(Nc4ccc(C#N)cc4)n3)c(F)c2)cc(C)n1` [compound 21], in the data set on HIV-1-IIIB strain, the “SI(IIIB), selection index (CC50/EC50)” value was 21 and the concentration giving a half-maximal response (EC50) stood at 0.056 ± 0.018 µM. The compound also gave a CC50 in the data set with MT-4 cells of 1.2 ± 0.11 µM.

As for `COc1cc(-c2cc(F)c(Nc3ccnc(Nc4ccc(C#N)cc4)n3)c(F)c2)ccn1` [compound 22], in the data set on HIV-1-IIIB strain, the “SI(IIIB), selection index (CC50/EC50)” value was determined as 501 and the EC50 was determined as 0.013 ± 0.0029 µM. Also, the CC50 in the data set with MT-4 cells was 6.7 ± 0.98 µM.

As for `N#Cc1ccc(Nc2nccc(Nc3c(F)cc(-c4ccc(N)cc4)cc3F)n2)cc1` [compound 23], in the data set with HIV-1-IIIB strain, the “SI(IIIB), selection index (CC50/EC50)” value is listed as >32,895 and the EC50 was determined as 0.0092 ± 0.0036 µM. In addition, the CC50 in the data set on MT-4 cells is over 303 µM.

The values above are taken from US11912685B2, “Biphenyl diaryl pyrimidine derivative with aromatic heterocyclic structure” (priority 2021, dated 2024).
